{"source": "patent US20250262192A1", "about": "“PROGNOSTIC PATHWAYS FOR HIGH RISK SEPSIS PATIENTS” (KONINKLIJKE PHILIPS N.V., priority 2021, published 2025)", "key": {"AR signaling pathway": {"tested_on": "AR signaling pathway", "assay": "THP-1 sepsis treatment model, qPCR-based STP activity score", "format": "cell-based", "details": "for Effect on AR PAS in LPS-stimulated THP-1 monocytes: THP-1 monocyte sepsis treatment model (Table 11); for Average AR STP activity score: 24 hours", "description": "(§1) In the treatment model the pathway inhibitor and LPS were added at the same time and the THP-1 cells were incubated for 24 hours prior to isolating RNA and determining pathway activities.\n(§2) For the first application, THP-1 cells were pre-incubated for 24 hours with the drug of choice, and subsequently LPS was added for 24 hours. For the treatment application, the drug and LPS were added simultaneously to the cells for 24 hours. Importantly: Some drugs needs processing in the body to become effective, this is the case for some of the androgen receptor (AR) pathway inhibitors, such as bicalutamide. In this case we have also tested the active variant of the drug (in the case of bicalutamide: (R-)bicalutamide).\n(§3) LPS is considered the main mediator of the sepsis symptoms. An in vitro experiment was designed where monocytes were stimulated with LPS and subsequently treated with a variety of inhibitors. Monocytes were chosen as they have been described to play a major role in sepsis, see for example Sukhacheva, [34], Clinical Laboratory Int. 26 Aug.\n(§4) Sepsis treatment model: For the treatment application, the drug and LPS were added simultaneously to the cells for 24 hours. Compounds and concentrations are described in Table 11 and Table 12 for healthy volunteer PBMCs.\n(§5) After stimulation cells were harvested and RNA was extracted using the RNeasy mini kit (Qiagen, 74104). qPCR-based STP activity scores were calculated using the Philips Research OncoSignal platform (www.philips.com/oncosignal), as described herein.\n(§6) Two concentrations of LPS 0.5 and 5 ng/ml were used in the experiments, furthermore for the THP-1 cell line an higher passage number (px-53-55) and a lower passage number (px-13-15) were used (Table 11). the THP-1 cell line with the lower passage was more reactive towards LPS activation compared to the higher passage number (data not shown)."}, "[1]": {"tested_on": "TGFbeta signaling pathway", "assay": "THP-1 sepsis treatment model, qPCR-based STP activity score", "format": "cell-based", "details": "for Average TGFb STP activity score: 24 hours", "description": "as §1, §2, §3, §4, §5, §6"}, "[2]": {"tested_on": "AR cellular signaling pathway", "assay": "THP-1 sepsis prevention model, qPCR-based STP activity score", "format": "cell-based"}, "[3]": {"tested_on": "TGFbeta cellular signaling pathway", "assay": "THP-1 sepsis prevention model, qPCR-based STP activity score", "format": "cell-based"}, "AR pathway [4]": {"tested_on": "AR pathway", "assay": "PBMCs of sepsis patients treated in vitro 24 hours with inhibitors, pathway activity score", "format": "cell-based, human", "set-up": "AR Pathway activity scores of sepsis PBMC patients: scale not given here", "details": "for AR Pathway activity scores of sepsis PBMC patients: EXP 1, individual patient samples, Vactosertib 1 uM, Vactosertib 1 uM + R-bicalutamide 25 uM, Etanercept 10 ug/ml, R-bicalutamide 25 uM", "description": "(§7) PBMC samples from healthy volunteers and sepsis patients were obtained via Tissue solutions. Briefly, cryopreserved PBMCs were first washed with washing buffer (PBS/1% BSA/2 mM EDTA), centrifuged and pellet resuspended in culture medium (RPM11640 without phenol red+8.5% charcoal stripped FBS+1% Glx+1% p/s). 0.5·10^5-1·10^6 cells were seeded per well in 24 wells plate and rested for 1 hour before treatment experiment. 10 PBMC samples from healthy donors were used to; (1) measure the baseline pathway levels, (2) activate with LPS\n(§8) Sepsis treatment model: PBMC derived from sepsis patients (n=20) were treated 24 hours with compounds, DMSO or combination of compounds. (PBMC from healthy and sepsis patients are originating from the same hospital to minimize bias in sample prep). After stimulation cells were harvested and RNA was extracted using the RNeasy mini kit (Qiagen, 74104). qPCR was performed using the Philips Research OncoSignal platform.\n(§9) In total 18 PBMCs sepsis samples were treated for 24 hours with selected inhibitors (and combinations), 6 patient samples per experiment."}, "TGFbeta pathway [5]": {"tested_on": "TGFbeta pathway", "assay": "PBMCs of sepsis patients treated in vitro 24 hours with inhibitors, pathway activity score", "format": "cell-based, human", "set-up": "scale not given here", "details": "EXP 1, individual patient samples, Vactosertib 1 uM, Vactosertib 1 uM + R-bicalutamide 25 uM, Etanercept 10 ug/ml, R-bicalutamide 25 uM", "description": "as §7, §8, §9"}, "AR pathway [6]": {"tested_on": "AR pathway", "assay": "PBMCs of healthy volunteers stimulated with LPS with or without drugs, pathway activity score", "format": "cell-based, human", "description": "as §4, §7\n(§10) PBMCs of healthy volunteers were stimulated with 5 ng/ml LPS for 24 hours in combination with (R)-Bicalutamide and (R)-Bicalutamide+Vactosertib (experiment 1). In experiment 2, (R)-Bicalutamide and etanercept were tested with 0.5 ng/ml LPS (Table 12A for exp 1 and Table 12B for exp 2)."}, "TGFbeta pathway [7]": {"tested_on": "TGFbeta pathway", "assay": "PBMCs of healthy volunteers stimulated with LPS with or without drugs, pathway activity score", "format": "cell-based, human", "description": "as §4, §7, §10"}, "AR pathway [8]": {"tested_on": "AR pathway", "assay": "THP-1 cell line stimulated with LPS or DHT and inhibited with Bicalutamide or Enzalutamide (Table 9A)", "format": "cell-based", "details": "THP-1, stimulated 5 hours and subsequently inhibited", "description": "(§11) LPS is considered the main mediator of the sepsis symptoms. An in vitro experiment was designed where monocytes were stimulated with LPS and subsequently treated with a variety of inhibitors. […] 26 Aug.\nas §5"}, "TGFBeta pathway [9]": {"tested_on": "TGFBeta pathway", "assay": "THP-1 cell line stimulated with LPS or DHT and inhibited with Bicalutamide or Enzalutamide (Table 9A)", "format": "cell-based", "details": "THP-1, stimulated 5 hours and subsequently inhibited", "description": "as §11, §5"}, "AR pathway [10]": {"tested_on": "AR pathway", "assay": "MOLT-4 lymphoid cell line stimulated with LPS or DHT and inhibited with Bicalutamide or Enzalutamide (Table 9B)", "format": "cell-based", "details": "stimulated 5 hours and subsequently inhibited", "description": "(§12) MOLT-4 (ATCC CRL-1582) were cultured in RPMI1640 media, supplemented with 10% FBS, 1% glutamax and 1% pen strep at 37° C. 5% CO2.\nas §5"}, "TGFBeta pathway [11]": {"tested_on": "TGFBeta pathway", "assay": "MOLT-4 lymphoid cell line stimulated with LPS or DHT and inhibited with Bicalutamide or Enzalutamide (Table 9B)", "format": "cell-based", "details": "MOLT-4, stimulated 5 hours and subsequently inhibited", "description": "as §12, §5"}, "[12]": {"details": "THP-1 px 13-15, LPS 0.5 ng/ml alone or with compound, (R)-Bicalutamide 25 uM, N-desmethyl Enzalutamide 2 uM, N-Desmethyl-Apalutamide 3 uM"}, "[13]": {"details": "THP-1 px 53-55, LPS 0.5 ng/ml alone or with compound, (R)-Bicalutamide 25 uM, Ketodarolutamide 10 uM, D4-abiraterone 10 uM"}, "[14]": {"details": "24 hrs Vactosertib or DMSO, then 24 hrs LPS"}, "[15]": {"details": "24 hrs Vactosertib, then 24 hrs PBS"}, "[16]": {"details": "THP-1 px 13-15, LPS 0.5 ng/ml alone or with compound, Vactosertib 1 uM, Etanercept 1 ug/ml, R-bicalutamide 25 uM + Etanercept 0.1 ug/ml, R-bicalutamide 25 uM + Filgotinib 10 uM"}, "[17]": {"details": "THP-1 px 13-15, LPS 0.5 ng/ml alone or with Etanercept 10 ug/ml"}, "[18]": {"details": "experiment 2, PBMCs, LPS 0.5 ng/ml + drug, Etanercept: not significantly"}, "[19]": {"details": "experiment 2, PBMCs of individual healthy volunteers, LPS 0.5 ng/ml alone, + Etanercept 10 ug/ml, or + (R)-Bicalutamide 25 uM"}, "[20]": {"details": "DHT (25 nM) alone or + Bicalutamide (5 uM) or Enzalutamide (5 uM)"}, "[21]": {"details": "LPS (50 ng/mL) alone or + Bicalutamide (5 uM) or Enzalutamide (5 uM)"}}, "note": "Where “and” joins values, the source holds several entries; their conditions need not be identical. Identical values can stand only once. Entries after “also recorded” stand apart in the source; their conditions may differ.", "data": [{"compound": "CC1(C)C(=O)N(c2ccc(C#N)c(C(F)(F)F)c2)C(=S)N1c1ccc(C(N)=O)c(F)c1", "note": "[N-desmethyl Enzalutamide]", "values": [{"measurement": "Effect on AR PAS in LPS-stimulated THP-1 monocytes", "setting": "AR signaling pathway", "result": "could reduce"}, {"measurement": "Average AR STP activity score", "setting": "AR signaling pathway; [12]", "result": 6.67, "unit": "normalized scores"}, {"measurement": "Average TGFb STP activity score", "setting": "[1]; [12]", "result": 13.33, "unit": "normalized scores"}]}, {"compound": "CC(=O)c1cc(C(=O)N[C@@H](C)Cn2ccc(-c3ccc(C#N)c(Cl)c3)n2)[nH]n1", "note": "[Ketodarolutamide]", "values": [{"measurement": "Effect on AR PAS in LPS-stimulated THP-1 monocytes", "setting": "AR signaling pathway", "result": "could reduce"}, {"measurement": "Average AR STP activity score", "setting": "AR signaling pathway; [13]", "result": 2.33, "unit": "normalized scores"}, {"measurement": "Average TGFb STP activity score", "setting": "[1]; [13]", "result": 12.00, "unit": "normalized scores"}]}, {"compound": "Cc1cccc(-c2[nH]c(CNc3ccccc3F)nc2-c2ccc3ncnn3c2)n1", "note": "[Vactosertib]", "values": [{"measurement": "Average PAS AR", "setting": "[2]; [14]", "result": 17.1, "unit": "normalized scores"}, {"measurement": "Average PAS AR", "setting": "[2]; [15]", "result": 3.8, "unit": "normalized scores"}, {"measurement": "Effect on the AR signaling pathway", "setting": "[2]; Vactosertib pretreatment followed by LPS", "result": "No effect"}, {"measurement": "Average PAS TGFbeta", "setting": "[3]; [14]", "result": 9.3, "unit": "normalized scores"}, {"measurement": "Average PAS TGFbeta", "setting": "[3]; [15]", "result": 1.7, "unit": "normalized scores"}, {"measurement": "Average AR STP activity score", "setting": "AR signaling pathway; [16]", "result": 8.67, "unit": "normalized scores"}, {"measurement": "Average TGFb STP activity score", "setting": "[1]; [16]", "result": 12.00, "unit": "normalized scores"}, {"measurement": "AR Pathway activity scores of sepsis PBMC patients", "setting": "AR pathway [4]", "result": "21 and 22"}, {"measurement": "Patients showing reduction in the AR pathway (not significant)", "setting": "AR pathway [4]; sepsis patient PBMCs, Etanercept 10 ug/ml in combination", "result": "2/3"}, {"measurement": "TGFbeta Pathway activity scores of sepsis PBMC patients", "setting": "TGFbeta pathway [5]", "result": 31}]}, {"compound": "N#Cc1ncc(N2C(=O)C3(CCC3)N(c3ccc(C(N)=O)c(F)c3)C2=S)cc1C(F)(F)F", "note": "[N-Desmethyl-Apalutamide]", "values": [{"measurement": "Effect on AR PAS in LPS-stimulated THP-1 monocytes", "setting": "AR signaling pathway", "result": "could reduce"}, {"measurement": "Average AR STP activity score", "setting": "AR signaling pathway; [12]", "result": 7.33, "unit": "normalized scores"}, {"measurement": "Average TGFb STP activity score", "setting": "[1]; [12]", "result": 13.33, "unit": "normalized scores"}]}, {"compound": "Etanercept", "values": [{"measurement": "Effect on AR PAS in LPS-stimulated THP-1 monocytes", "setting": "AR signaling pathway", "result": "could reduce; also recorded: could be lowered"}, {"measurement": "Average AR STP activity score", "setting": "AR signaling pathway; [17]", "result": 6.33, "unit": "normalized scores"}, {"measurement": "Average AR STP activity score", "setting": "AR signaling pathway; [16]", "result": "5.00 normalized scores and 6.00 normalized scores"}, {"measurement": "Effect on TGFbeta PAS in LPS-stimulated THP-1 monocytes", "setting": "[1]; THP-1 monocyte sepsis treatment model (Table 11)", "result": "could lower; also recorded: could be lowered"}, {"measurement": "Average TGFb STP activity score", "setting": "[1]; [17]", "result": 11.33, "unit": "normalized scores"}, {"measurement": "Average TGFb STP activity score", "setting": "[1]; [16]", "result": "9.67 normalized scores and 11.67 normalized scores"}, {"measurement": "Healthy volunteers showing AR PAS decrease", "setting": "AR pathway [6]; [18]", "result": "2 out of 4"}, {"measurement": "AR PAS", "setting": "AR pathway [6]; [19]", "result": "21 and 31 (2×) and 18"}, {"measurement": "Healthy volunteers showing TGFbeta PAS decrease", "setting": "TGFbeta pathway [7]; [18]", "result": "3 out of 4"}, {"measurement": "TGFbeta PAS", "setting": "TGFbeta pathway [7]; [19]", "result": "29 and 34 and 31 (2×)"}, {"measurement": "AR Pathway activity scores of sepsis PBMC patients", "setting": "AR pathway [4]", "result": "28 and 20"}, {"measurement": "TGFbeta Pathway activity scores of sepsis PBMC patients", "setting": "TGFbeta pathway [5]", "result": "42 and 30 and 31"}]}, {"compound": "CNC(=O)c1ccc(N2C(=S)N(c3ccc(C#N)c(C(F)(F)F)c3)C(=O)C2(C)C)cc1F", "note": "[Enzalutamide]", "values": [{"measurement": "AR STP activity", "setting": "AR pathway [8]; [20]", "result": 6.0, "unit": "normalized scores"}, {"measurement": "AR STP activity", "setting": "AR pathway [8]; [21]", "result": 20.4, "unit": "normalized scores"}, {"measurement": "TGFbeta STP activity", "setting": "TGFBeta pathway [9]; [20]", "result": 17.3, "unit": "normalized scores"}, {"measurement": "TGFbeta STP activity", "setting": "TGFBeta pathway [9]; [21]", "result": 33.6, "unit": "normalized scores"}, {"measurement": "AR STP activity", "setting": "AR pathway [10]; [20]", "result": 7.3, "unit": "normalized scores"}, {"measurement": "AR STP activity", "setting": "AR pathway [10]; [21]", "result": 6.3, "unit": "normalized scores"}, {"measurement": "TGFbeta STP activity", "setting": "TGFBeta pathway [11]; [20]", "result": 14.1, "unit": "normalized scores"}, {"measurement": "TGFbeta STP activity", "setting": "TGFBeta pathway [11]; [21]", "result": 14.1, "unit": "normalized scores"}]}]}
